Several values for one entry are separate records, joined by “and”; a condition that tells them apart may be missing. Identical values can stand only once. Like-named read-outs stand apart in the source and are kept apart here.
Key:
DIO C57Bl6 mice = details: for Weight Change from day 1: Day 32; for Average BW: IP-GTT day 24; for Blood Glucose 120 / Blood Glucose 15 min / Blood Glucose 30 min / Blood Glucose 60 min / Blood Glucose 90 min / Blood Glucose Fasting: IP-GTT day 24, ± SEM; for CHOLESTEROL / HDL CHOLESTEROL / HDL/LDL ratio / LDL / TRIGLYCERIDE: blood day 32, ± SEM; for Epid. Fat / Fat % BW / Ing. Fat / Liver / RP Fat / Total Fat / avg B.W.: day 32; for Blood glucose: day 32, fasted three hours; for weekly food consumption, % of vehicle: day 9-29
Experimental: C57Bl6 male mice (N=6) fifteen weeks old with an average of weight of 42 g were ad libitum fed TD.06414 a high fat diet composed of 60% Kcal from fat (Harlan diet). […] Animals were weighed every other day. Food consumption was measured weekly. […] Each animal was weighed and a baseline fasted glucose measurement collected. Each animal was given a 1 gram per kilogram dose of dextrose as a 25% solution by intraperitoneal injection.

Sprague Dawley male rats = experiment: Tolerability of high IV doses on q7d schedule in Sprague Dawley rats; assay type: in vivo; details: 100 mg/kg or 200 mg/kg IV on days 1, 8, 15, 22 and 29
Experimental: Sprague Dawley male rats (N=3) nine to ten weeks old with an average weight of 300 g were ad libitum fed standard rodent diet (PharmaServ lab diet 5001). […] The rats were weighed periodically and bled on day 10, day 17, day 24. For in-life blood collections, the rats were anesthetized with an inhalation mixture of 4% Isoflurane and 1.5% oxygen, then blood was collected via retro-orbital plexus puncture at a volume of at least 1 mL. […] Within the limits of comparison to normal ranges and pre-dose data, clinical findings for albumin, albumin/globulin ratio, alkaline, phosphatase, ALT (SGPT), AST (SGOT), bicarbonate, direct bilirubin, indirect bilirubin, total bilirubin, BUN, BUN/creatinine ratio, calcium, chloride, cholesterol, CK, creatinine, globulin, glucose, phosphorus, potassium, sodium, sodium/potassium ratio, total protein were unremarkable.

Substance: poly[HPMA-co-MA-GFLG-N-(trans-4-aminocyclohexyl)carbamoylfumagillol] [Compound 16]
- Group BW ± SEM, Day 32 (DIO C57Bl6 mice; 0.2 mg/kg q4d sc): 46.5 ± 0.65 g
- Weekly food consumption Day 1-8 (DIO C57Bl6 mice; 0.2 mg/kg q4d sc): 25.8 g
- Weekly food consumption Day 9-15 (DIO C57Bl6 mice; 0.2 mg/kg q4d sc): 22.6 g
- Weekly food consumption Day 15-22 (DIO C57Bl6 mice; 0.2 mg/kg q4d sc): 20.3 g
- Weekly food consumption Day 22-29 (DIO C57Bl6 mice; 0.2 mg/kg q4d sc): 19.7 g
- Weight Change from day 1 (DIO C57Bl6 mice; 0.2 mg/kg q4d sc): +10.5%
- Average BW (DIO C57Bl6 mice; 0.2 mg/kg q4d sc): 43.4 g
- Blood Glucose 120 (DIO C57Bl6 mice; 0.2 mg/kg q4d sc): 241 ± 16.8 mg/dL
- Blood Glucose 15 min (DIO C57Bl6 mice; 0.2 mg/kg q4d sc): 505 ± 33.9 mg/dL
- Blood Glucose 30 min (DIO C57Bl6 mice; 0.2 mg/kg q4d sc): 446 ± 20.5 mg/dL
- Blood Glucose 60 min (DIO C57Bl6 mice; 0.2 mg/kg q4d sc): 456 ± 25.9 mg/dL
- Blood Glucose 90 min (DIO C57Bl6 mice; 0.2 mg/kg q4d sc): 341 ± 15.5 mg/dL
- Blood Glucose Fasting (DIO C57Bl6 mice; 0.2 mg/kg q4d sc): 254 ± 5.8 mg/dL
- CHOLESTEROL (DIO C57Bl6 mice; 0.2 mg/kg q4d sc): 253 ± 8.4 mg/dL
- HDL CHOLESTEROL (DIO C57Bl6 mice; 0.2 mg/kg q4d sc): 117 ± 2.7 mg/dL
- HDL/LDL ratio (DIO C57Bl6 mice; 0.2 mg/kg q4d sc): 4.9 ± 0.2
- LDL (DIO C57Bl6 mice; 0.2 mg/kg q4d sc): 24 ± 1.1 mg/dL
- TRIGLYCERIDE (DIO C57Bl6 mice; 0.2 mg/kg q4d sc): 158 ± 10.9 mg/dL
- Epid. Fat (DIO C57Bl6 mice; 0.2 mg/kg q4d sc): 2.01 g
- Fat % BW (DIO C57Bl6 mice; 0.2 mg/kg q4d sc): 13.0%
- Ing. Fat (DIO C57Bl6 mice; 0.2 mg/kg q4d sc): 2.54 g
- Liver (DIO C57Bl6 mice; 0.2 mg/kg q4d sc): 2.06 g
- RP Fat (DIO C57Bl6 mice; 0.2 mg/kg q4d sc): 1.48 g
- Total Fat (DIO C57Bl6 mice; 0.2 mg/kg q4d sc): 6.02 g
- avg B.W. (DIO C57Bl6 mice; 0.2 mg/kg q4d sc): 46.50 g
- Blood glucose (DIO C57Bl6 mice; 0.2 mg/kg q4d sc): 290 mg/dL
- Group BW ± SEM, Day 32 (DIO C57Bl6 mice; 0.6 mg/kg q4d sc): 43.3 ± 0.42 g
- Weekly food consumption Day 1-8 (DIO C57Bl6 mice; 0.6 mg/kg q4d sc): 19.5 g
- Weekly food consumption Day 9-15 (DIO C57Bl6 mice; 0.6 mg/kg q4d sc): 21.5 g
- Weekly food consumption Day 15-22 (DIO C57Bl6 mice; 0.6 mg/kg q4d sc): 20.2 g
- Weekly food consumption Day 22-29 (DIO C57Bl6 mice; 0.6 mg/kg q4d sc): 18.4 g
- Weight Change from day 1 (DIO C57Bl6 mice; 0.6 mg/kg q4d sc): +2.9%
- Average BW (DIO C57Bl6 mice; 0.6 mg/kg q4d sc): 40.9 g
- Blood Glucose 120 (DIO C57Bl6 mice; 0.6 mg/kg q4d sc): 192 ± 12.9 mg/dL
- Blood Glucose 15 min (DIO C57Bl6 mice; 0.6 mg/kg q4d sc): 442 ± 50.0 mg/dL
- Blood Glucose 30 min (DIO C57Bl6 mice; 0.6 mg/kg q4d sc): 441 ± 35.54 mg/dL
- Blood Glucose 60 min (DIO C57Bl6 mice; 0.6 mg/kg q4d sc): 388 ± 56.7 mg/dL
- Blood Glucose 90 min (DIO C57Bl6 mice; 0.6 mg/kg q4d sc): 302 ± 43.3 mg/dL
- Blood Glucose Fasting (DIO C57Bl6 mice; 0.6 mg/kg q4d sc): 206 ± 14.9 mg/dL
- CHOLESTEROL (DIO C57Bl6 mice; 0.6 mg/kg q4d sc): 210 ± 3.7 mg/dL
- HDL CHOLESTEROL (DIO C57Bl6 mice; 0.6 mg/kg q4d sc): 106 ± 1.2 mg/dL
- HDL/LDL ratio (DIO C57Bl6 mice; 0.6 mg/kg q4d sc): 5.4 ± 0.1
- LDL (DIO C57Bl6 mice; 0.6 mg/kg q4d sc): 20 ± 0.3 mg/dL
- TRIGLYCERIDE (DIO C57Bl6 mice; 0.6 mg/kg q4d sc): 116 ± 3.1 mg/dL
- Epid. Fat (DIO C57Bl6 mice; 0.6 mg/kg q4d sc): 2.24 g
- Fat % BW (DIO C57Bl6 mice; 0.6 mg/kg q4d sc): 13.9%
- Ing. Fat (DIO C57Bl6 mice; 0.6 mg/kg q4d sc): 2.51 g
- Liver (DIO C57Bl6 mice; 0.6 mg/kg q4d sc): 1.75 g
- RP Fat (DIO C57Bl6 mice; 0.6 mg/kg q4d sc): 1.26 g
- Total Fat (DIO C57Bl6 mice; 0.6 mg/kg q4d sc): 6.01 g
- avg B.W. (DIO C57Bl6 mice; 0.6 mg/kg q4d sc): 43.32 g
- Blood glucose (DIO C57Bl6 mice; 0.6 mg/kg q4d sc): 265 mg/dL
- weekly food consumption, % of vehicle (DIO C57Bl6 mice; 2 mg/kg q4d): 90%
- Weekly food consumption Day 1-8 (DIO C57Bl6 mice; 2 mg/kg q4d sc): 14.3 g
- Weekly food consumption Day 9-15 (DIO C57Bl6 mice; 2 mg/kg q4d sc): 22.2 g
- Weekly food consumption Day 15-22 (DIO C57Bl6 mice; 2 mg/kg q4d sc): 19.9 g
- Weekly food consumption Day 22-29 (DIO C57Bl6 mice; 2 mg/kg q4d sc): 18.5 g
- Group BW ± SEM, Day 32 (DIO C57Bl6 mice; 2.0 mg/kg q4d sc): 38.8 ± 0.70 g
- Weight Change from day 1 (DIO C57Bl6 mice; 2.0 mg/kg q4d sc): −7.4%
- Average BW (DIO C57Bl6 mice; 2.0 mg/kg q4d sc): 36.8 g
- Blood Glucose 120 (DIO C57Bl6 mice; 2.0 mg/kg q4d sc): 166 ± 6.4 mg/dL
- Blood Glucose 15 min (DIO C57Bl6 mice; 2.0 mg/kg q4d sc): 388 ± 20.7 mg/dL
- Blood Glucose 30 min (DIO C57Bl6 mice; 2.0 mg/kg q4d sc): 361 ± 24.3 mg/dL
- Blood Glucose 60 min (DIO C57Bl6 mice; 2.0 mg/kg q4d sc): 327 ± 26.7 mg/dL
- Blood Glucose 90 min (DIO C57Bl6 mice; 2.0 mg/kg q4d sc): 244 ± 24.0 mg/dL
- Blood Glucose Fasting (DIO C57Bl6 mice; 2.0 mg/kg q4d sc): 198 ± 11.6 mg/dL
- CHOLESTEROL (DIO C57Bl6 mice; 2 mg/kg q4d sc): 149 ± 4.7 mg/dL
- HDL CHOLESTEROL (DIO C57Bl6 mice; 2 mg/kg q4d sc): 92 ± 2.6 mg/dL
- HDL/LDL ratio (DIO C57Bl6 mice; 2 mg/kg q4d sc): 9.0 ± 0.4
- LDL (DIO C57Bl6 mice; 2 mg/kg q4d sc): 10 ± 0.5 mg/dL
- TRIGLYCERIDE (DIO C57Bl6 mice; 2 mg/kg q4d sc): 95 ± 8.7 mg/dL
- Epid. Fat (DIO C57Bl6 mice; 2.0 mg/kg q4d sc): 1.72 g
- Fat % BW (DIO C57Bl6 mice; 2.0 mg/kg q4d sc): 11% and 11.4%
- Ing. Fat (DIO C57Bl6 mice; 2.0 mg/kg q4d sc): 1.81 g
- Liver (DIO C57Bl6 mice; 2.0 mg/kg q4d sc): 1.44 g
- RP Fat (DIO C57Bl6 mice; 2.0 mg/kg q4d sc): 0.89 g
- Total Fat (DIO C57Bl6 mice; 2.0 mg/kg q4d sc): 4.42 g
- avg B.W. (DIO C57Bl6 mice; 2.0 mg/kg q4d sc): 38.82 g
- Blood glucose (DIO C57Bl6 mice; 2.0 mg/kg q4d sc): 259 mg/dL
- weekly food consumption, % of vehicle (DIO C57Bl6 mice; 6 mg/kg q4d): 75%
- Weekly food consumption Day 1-8 (DIO C57Bl6 mice; 6 mg/kg q4d sc): 9.0 g
- Weekly food consumption Day 9-15 (DIO C57Bl6 mice; 6 mg/kg q4d sc): 17.5 g
- Weekly food consumption Day 15-22 (DIO C57Bl6 mice; 6 mg/kg q4d sc): 17.8 g
- Weekly food consumption Day 22-29 (DIO C57Bl6 mice; 6 mg/kg q4d sc): 16.1 g
- Group BW ± SEM, Day 32 (DIO C57Bl6 mice; 6.0 mg/kg q4d sc): 33.6 ± 0.72 g
- Weight Change from day 1 (DIO C57Bl6 mice; 6.0 mg/kg q4d sc): −20.0%
- Average BW (DIO C57Bl6 mice; 6.0 mg/kg q4d sc): 33.0 g
- Blood Glucose 120 (DIO C57Bl6 mice; 6.0 mg/kg q4d sc): 177 ± 9.3 mg/dL
- Blood Glucose 15 min (DIO C57Bl6 mice; 6.0 mg/kg q4d sc): 473 ± 39.1 mg/dL
- Blood Glucose 30 min (DIO C57Bl6 mice; 6.0 mg/kg q4d sc): 355 ± 23.8 mg/dL
- Blood Glucose 60 min (DIO C57Bl6 mice; 6.0 mg/kg q4d sc): 324 ± 19.1 mg/dL
- Blood Glucose 90 min (DIO C57Bl6 mice; 6.0 mg/kg q4d sc): 240 ± 6.7 mg/dL
- Blood Glucose Fasting (DIO C57Bl6 mice; 6.0 mg/kg q4d sc): 185 ± 6.5 mg/dL
- CHOLESTEROL (DIO C57Bl6 mice; 6 mg/kg q4d sc): 109 ± 2.6 mg/dL
- HDL CHOLESTEROL (DIO C57Bl6 mice; 6 mg/kg q4d sc): 72 ± 1.3 mg/dL
- HDL/LDL ratio (DIO C57Bl6 mice; 6 mg/kg q4d sc): 9.0 ± 0.5
- LDL (DIO C57Bl6 mice; 6 mg/kg q4d sc): 8 ± 0.5 mg/dL
- TRIGLYCERIDE (DIO C57Bl6 mice; 6 mg/kg q4d sc): 81 ± 13.6 mg/dL
- Epid. Fat (DIO C57Bl6 mice; 6.0 mg/kg q4d sc): 1.11 g
- Fat % BW (DIO C57Bl6 mice; 6.0 mg/kg q4d sc): 10% and 9.7%
- Ing. Fat (DIO C57Bl6 mice; 6.0 mg/kg q4d sc): 1.54 g
- Liver (DIO C57Bl6 mice; 6.0 mg/kg q4d sc): 1.30 g
- RP Fat (DIO C57Bl6 mice; 6.0 mg/kg q4d sc): 0.60 g
- Total Fat (DIO C57Bl6 mice; 6.0 mg/kg q4d sc): 3.25 g
- avg B.W. (DIO C57Bl6 mice; 6.0 mg/kg q4d sc): 33.60 g
- Blood glucose (DIO C57Bl6 mice; 6.0 mg/kg q4d sc): 227 mg/dL
- evidence of neurotoxicity (ataxis, disorientation, tremor or convulsion) (Sprague Dawley male rats): did not exhibit any evidence of neurotoxicity

Source: US11304944B2, “MetAP2 inhibitors and methods of treating obesity” (SynDevRx, Inc., priority 2013, dated 2022)
